Source: patent US8835510B2, “Methods and compositions for treating conditions mediated by oxidative stress or electrophilic environmental toxins” (priority 2010, dated 2014)
“Also recorded” adds a separate entry of the source.

Tests used:
MN9D cells [1] = assay: Cell viability (trypan blue) in acrolein-exposed MN9D cultures; conditions: for protection against acrolein-induced cell death (words): pre-incubation 60 minutes, 750 μM each (phloretin 100 μM)
Protocol: (§1) As a more complex biological model, a determination was made of the relative abilities of the 1,3-dicarbonyls to protect MN9D cells, a dopaminergic cell line, from acrolein- (FIG. 6) or hydrogen peroxide (H2O2)-induced cell death (FIG. 7). Briefly, two days after plating, cells were incubated with AcAc (750 μM) for one hr followed by exposure to graded concentrations of either acrolein (0.50-150 μM×24 hrs) or H2O2 (50-750 μM×24 hrs). Cell viability was determined by trypan blue (0.1%) exclusion. Living cells were counted in a hemocytometer and total cells per dish were calculated.

[2] = Kinetic assay of acrolein-induced N-acetyl cysteine (NAC) sulfhydryl loss (DTNB method); conditions: for rate of sulfhydryl loss (mean rate±SE): NAC + acrolein 150 μM + test compound 50 μM co-incubated, Krebs buffer pH 7.4, 30° C.; for sulfhydryl (NAC) protection, pre-incubation: acrolein pre-incubated with test compound, NAC added one hour later
Description: As an index of cytoprotection, these studies focused on the abilities of 1,3-dicarbonyl compounds to prevent electrophile-induced loss of protein and non-protein sulfhydryl groups. This experimental focus is based on substantial evidence that soft electrophiles, like acrolein, produce toxicity by forming Michael-type adducts with soft nucleophilic thiolate (anionic sulfhydryl) groups on functionally critical proteins^9, 17, 22, 56, 57 (reviewed in^28, 58, 62, 77, 94). […] To test this hypothesis, a determination was made of the ability of AcAc and other structurally related enol analogs to prevent sulfhydryl (nucleophile) adduction by acrolein (electrophile)^56. […] Free sulfhydryl concentrations were determined over time (up to 15 mins) by the DTNB method of LoPachin et al.^52.
Therefore, as a kinetic index of competitive thiol protection by enolate sequestration, the relative in vitro abilities of 1,3-dicarbonyl compounds and phloretin to slow the rate of acrolein-induced sulfhydryl loss were measured.

MN9D cells [3] = assay: Cytotoxicity of test compound alone in MN9D cultures; conditions: 100 μM
[4] = as above; conditions: mouse, MN9D cells
[5] = Free radical scavenging (DPPH absorbance method of Ak and Gulcin)
Protocol: The relative abilities of selected 1,3-dicarbonyl compounds to scavenge free radicals were determined using the spectrophotometric method of Ak and Gulcin (2008)^4 that measures changes in the absorbance of the 2,2-diphenyl-1-picrylhydrazyl radical.

[6] = Ferrous ion chelation (method of Dairam et al.)
[7] = tested on: control striatal synaptosomes; assay: In vitro toxicity: radiolabeled dopamine (DA) membrane transport in control striatal synaptosomes; conditions: FIG. 4
[8] = pKa and enolate ionization of enol compounds; format: physicochemical
MN9D cells [9] = assay: Cell viability (trypan blue) in H2O2-exposed MN9D cultures; conditions: for protection against H2O2-induced cell death: test compound 750 μM (phloretin 100 μM)
Protocol: as §1
(§2) This system represents a more complete model of oxidative stress since the hydroxyl radical formed from intracellular H2O2 during the Fenton reaction, subsequently mediates the generation of toxic aldehyde by-products such as acrolein and 4-hydroxy-2-nonenal (HNE).

[10] = as above; conditions: mouse, MN9D cells
Protocol: as §1, §2

whole animal = conditions: cited from earlier work
[11] = tested on: acrolein-exposed striatal synaptosomes; assay: Protection against acrolein-induced inhibition of 3H-dopamine transport in striatal synaptosomes; format: cell-based, rat; conditions: test compound 500 μM, Krebs buffer pH 7.4, 30° C., 15 mins (FIG. 5A)

O=C(CCc1ccc(O)cc1)c1c(O)cc(O)cc1O [phloretin, reference compound]
protection against acrolein-induced cell death (words) (MN9D cells [1]): did not protect | protection against acrolein-induced cell death (words) (MN9D cells [1]; listed as Phloretin): did not provide cytoprotection | rate of sulfhydryl loss (mean rate±SE) [2]: −1.9±0.7 nmol SH sec^−1 | sulfhydryl (NAC) protection, pre-incubation [2]: significant thiol protection | sulfhydryl (NAC) protection, co-incubation ([2]; all chemicals added simultaneously): only marginally protective | MN9D cell death / cell loss by compound alone (MN9D cells [3]): ~50% | MN9D cell death / cell loss by compound alone (MN9D cells [3]; listed as Phloretin): 42% | CC50 [4]: 362 µM | DPPH radical scavenging [5]: relatively weak DPPH. scavengers | Fe^2+ chelating activity [6]: little, if any, Fe^2+ chelating activity | synaptosomal toxicity of compound alone, DA transport (words, IC50 magnitude) [7]: relatively significant in vitro toxicity; also recorded: significant synaptosomal toxicity | pKa [8]: 7.3 | protection against H2O2-induced cell death (MN9D cells [9]): potentiated H2O2 toxicity

OO [H2O2, hydrogen peroxide]
CC50 at 24 h [10]: 254 µM

CC(=O)CC(C)=O [AcAc, acetylacetone]
concentration dependence of protection against acrolein (MN9D cells [1]; graded concentrations: 2-ACP 100-750 μM, AcAc 250-1000 μM (range-finding 50-1000 μM)): concentration-dependent protection; also recorded: significant increases in the LC50 | protection against acrolein-induced cell death (words) (MN9D cells [1]): significantly increased the acrolein LC50 | increase in acrolein LC50 (MN9D cells [1]; test compound 750 μM pre-incubation): ~7 fold | rate of sulfhydryl loss (mean rate±SE) [2]: −24.9±5 nmol SH sec^−1 | sulfhydryl (NAC) protection, pre-incubation [2]: modestly effective | rate of acrolein-induced sulfhydryl (NAC) loss (mean rate±95% confidence interval) ([2]; pH 7.4): -24.9 ± 3.6 nmol/s | rate of acrolein-induced sulfhydryl (NAC) loss ([2]; pH 9.0): -2.43 ± 2.2 nmol/s | thiol protection against acrolein at elevated pH ([2]; pH 9.0): substantially elevated; also recorded: completely protective | EC50 ([6]; read-out: concentration at which 50% Fe^2+ chelation occurs): 909 µM | pKa [8]: 8.9 | increase in enolate concentration ([8]; pH 9.0 relative to pH 7.4): ~100 fold | LD50 (whole animal): 175 mg/kg | change in acrolein IC50 for inhibition of DA transport [11]: largest increases in the acrolein IC50 | protection against H2O2-induced cytotoxicity (MN9D cells [9]; FIG. 7): 3 fold | concentration dependence of protection against H2O2 (MN9D cells [9]; graded concentrations: 2-ACP 250-750 μM, AcAc 500-1500 μM (range-finding 50-1000 μM)): concentration-dependent protection; also recorded: significant increases in the LC50 of H2O2 | protection against H2O2-induced cell death (MN9D cells [9]): modestly effective
